Patent US9527930B2, “FGF receptor-activating N-sulfate oligosaccharides, preparation thereof, and therapeutic use thereof” (priority 2009, dated 2016)

Target: FGF-2 (Homo sapiens, UniProt P09038)
Assay: in vitro cellular test of FGF-2 activation
Type: cell-based

FGF-2, sequence (P09038 143-288): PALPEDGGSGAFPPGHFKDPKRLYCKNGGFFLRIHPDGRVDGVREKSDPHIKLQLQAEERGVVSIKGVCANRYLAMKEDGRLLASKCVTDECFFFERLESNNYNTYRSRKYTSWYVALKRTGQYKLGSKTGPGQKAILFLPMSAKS

Q: How did the “FGF-2 activation compared with the hexasaccharide analogue (C. Tabeur et al.)” value turn out when “Sodium [methyl(sodium 2-O-sodium sulfonato-α-L-idopyranosyluronate)-(1→4)-(2-deoxy-6-O-sodium sulfonato-2-sodium (sulfonatoamino)-α-D-glucopyranosyl)-(1→4)-[(sodium 2-O-sodium sulfonato-α-L-idopyranosyluronate)-(1→4)-(2-deoxy-6-O-sodium sulfonato-2-sodium sulfonatoamino)-α-D-glucopyranos)-(1→4)]2-2-O-sodium sulfonato-α-L-idopyranoside]uronate [Compound 3]” was run?
A: The value was “better FGF-2 activators than the hexasaccharide analogue thereof”.
